Measurements reported in patent publication US5028716A, “3,5-diamino-1,2,4-triazole derivatives” (Taisho Pharmaceutical Co., Ltd., priority 1989, dated 1991).

Test system: lipid peroxidation (cerebral tissue homogenate)
Test: Inhibition test of lipid peroxidation (malondialdehyde formation, thiobarbituric acid method)
Settings: rat cerebral tissue supernatant, pH 7.4, 37° C., 30 minutes

Compound	Inhibition (%) Dose 5 μM	Inhibition (%) Dose 100 μM
Nc1nc(N(CCSSCCN(Cc2ccccc2)c2n[nH]c(N)n2)Cc2ccccc2)n[nH]1 [Compound 7, bis{2-[N-benzyl-N-(5-amino-1,2,4-triazol-3-yl)amino]ethyl}disulfide]	31.4%	96.0%
Cc1ccc(CN(CCSSCCN(Cc2ccc(C)c([N+](=O)[O-])c2)c2nc(N)n[nH]2)c2nc(N)n[nH]2)cc1[N+](=O)[O-] [Compound 37]	31.4%	–
Nc1n[nH]c(N(CCSSCCN(Cc2ccc3ccccc3c2)c2nc(N)n[nH]2)Cc2ccc3ccccc3c2)n1 [Compound 39]	56.3%	–
Cc1ccc(CN(CCSSCCN(Cc2ccc(C)cc2)c2nc(N)n[nH]2)c2nc(N)n[nH]2)cc1 [Compound 25]	51.8%	–
CC(C)(C)c1ccc(CN(CCSSCCN(Cc2ccc(C(C)(C)C)cc2)c2nc(N)n[nH]2)c2nc(N)n[nH]2)cc1 [Compound 33]	35.6%	–
Nc1n[nH]c(N(CCSSCCN(Cc2cccc(Br)c2)c2nc(N)n[nH]2)Cc2cccc(Br)c2)n1 [Compound 13]	51.1%	–
Cc1cccc(CN(CCSSCCN(Cc2cccc(C)c2)c2nc(N)n[nH]2)c2nc(N)n[nH]2)c1 [Compound 23]	48.1%	–
Nc1n[nH]c(N(CCSSCCN(Cc2cccc(C(F)(F)F)c2)c2nc(N)n[nH]2)Cc2cccc(C(F)(F)F)c2)n1 [Compound 22]	36.6%	–
Nc1n[nH]c(N(CCSSCCN(Cc2ccc([N+](=O)[O-])cc2)c2nc(N)n[nH]2)Cc2ccc([N+](=O)[O-])cc2)n1 [Compound 20]	35.2%	–
vitamin E [reference compound]	12.6%	30.5%
COc1ccc(CN(CCSSCCN(Cc2ccc(OC)cc2)c2nc(N)n[nH]2)c2nc(N)n[nH]2)cc1 [Compound 17]	22.2%	100%
Cc1cc(C)c(CN(CCSSCCN(Cc2c(C)cc(C)cc2C)c2nc(N)n[nH]2)c2nc(N)n[nH]2)c(C)c1 [Compound 30]	85.8%	–
CC(C)N(CCSSCCN(c1nc(N)n[nH]1)C(C)C)c1nc(N)n[nH]1 [Compound 6]	–	55.7%
Nc1n[nH]c(N(CCSSCCN(Cc2ccc(Br)cc2)c2nc(N)n[nH]2)Cc2ccc(Br)cc2)n1 [Compound 14]	49.2%	–
Cc1ccccc1CN(CCSSCCN(Cc1ccccc1C)c1nc(N)n[nH]1)c1nc(N)n[nH]1 [Compound 24]	41.6%	–
Nc1n[nH]c(N(CCSSCCN(Cc2ccc(OCc3ccccc3)cc2)c2nc(N)n[nH]2)Cc2ccc(OCc3ccccc3)cc2)n1 [Compound 18]	71.7%	–
Nc1n[nH]c(N(CCSSCCN(Cc2cccc([N+](=O)[O-])c2)c2nc(N)n[nH]2)Cc2cccc([N+](=O)[O-])c2)n1 [Compound 19]	21.3%	100%
Nc1n[nH]c(N(CCSSCCN(Cc2ccc(-c3ccccc3)cc2)c2nc(N)n[nH]2)Cc2ccc(-c3ccccc3)cc2)n1 [Compound 34]	55.8%	–
Nc1n[nH]c(N(CCSSCCN(Cc2cccc3ccccc23)c2nc(N)n[nH]2)Cc2cccc3ccccc23)n1 [Compound 38]	56.8%	–
Cc1ccc(C)c(CN(CCSSCCN(Cc2cc(C)ccc2C)c2nc(N)n[nH]2)c2nc(N)n[nH]2)c1 [Compound 29]	70.8%	–
